Patent US8697739B2, “Bicyclic acetyl-CoA carboxylase inhibitors and uses thereof” (Novartis AG, priority 2010, dated 2014)

Target: T1, human acetyl-CoA carboxylase 2 (ACC2) (Homo sapiens, UniProt O00763)
T1 construct: The cDNA encoding amino acids 144 to 2458 of human acetyl-CoA carboxylase 2; made in house; host or cells: Sf9 insect cells (baculovirus, pFastBac1)
Assay: Acetyl-CoA carboxylase enzyme assay (malonyl-CoA formation by LC/MS/MS)
Type: biochemical
Conditions: recombinant human ACC2 (aa 144-2458); read-out: IC50 ACC2
Description: The cDNA encoding amino acids 144 to 2458 of human acetyl-CoA carboxylase 2 (ACC2, GenBank Accession #NM_001093) was cloned into the SalI and NotI sites of pFastBac1 (Invitrogen; Carlsbad, Calif.). The resulting plasmid was used to generate a recombinant ACC2 baculovirus that was amplified and titered according to the protocols in the Bac-to-Bac baculovirus expression system manual (Invitrogen). The titered virus was used to infect Sf9 cells grown in Ex-Cell 420 serum-free medium (JRH Biosciences; Lenexa, Kans.). At 48 hours post-infection, the cells were harvested and stored at −80° C. until purification. ACC2 was purified using ammonium sulfate precipitation and anion exchange chromatography.
The enzymatic assay was run as follows: 30 μL of reaction buffer (100 mM HEPES pH 7.5, 20 mM MgCl2, 20 mM potassium citrate, 2 mM DTT) was added to a 384-well microtiter plate followed by 2 μL of the test compound (or 100% DMSO control). ACC2 protein (10 μL of a 50 nM working solution) was added to plate, which was incubated at room temperature for 15 minutes. A 30 μL addition of substrate solution (50 μM acetyl-CoA, 120 μM ATP, 2 mM KHCO3) was used to initiate the reactions which were quenched with 6% acetic acid (40 μL). ACC catalyzed malonyl-CoA formation was detected by LC/MS/MS using a Cohesive Technologies LX Series multiplex LC/MSIMS system configured with four binary pumps (Agilent Technologies; Palo Alto, Calif.), a dual arm autosampler (Leap Technologies; Cary, N.C.), and one Quattro Micro triple quadrupole mass spectrometer (Waters, Milford, Mass.), all run by Aria Software version 1.5 (Cohesive Technologies; Franklin, Mass.). Four samples were injected (20 μL) onto four Phenosphere NEXT C18 30×2 mm 5 μm columns (Phenomenex; Torrance, Calif.), eluted by four separate pumps, running identical gradients, through a column switching manifold with the one outlet fitted to the electrospray (ESI) source. Malonyl-CoA was eluted with 5 mM ammonium acetate, pH 4.5 (Buffer A) and 100% acetonitrile (Buffer B) via a step gradient. Argon was used as the collision gas and the following species were monitored via MRM detection: malonyl-CoA (853.8>346.9), internal standard (A: [^13C3]-malonyl-CoA, 857>350). The lower limit of detection is 0.3 uM for malonyl-CoA in this assay.

T1 sequence (O00763 144-2458): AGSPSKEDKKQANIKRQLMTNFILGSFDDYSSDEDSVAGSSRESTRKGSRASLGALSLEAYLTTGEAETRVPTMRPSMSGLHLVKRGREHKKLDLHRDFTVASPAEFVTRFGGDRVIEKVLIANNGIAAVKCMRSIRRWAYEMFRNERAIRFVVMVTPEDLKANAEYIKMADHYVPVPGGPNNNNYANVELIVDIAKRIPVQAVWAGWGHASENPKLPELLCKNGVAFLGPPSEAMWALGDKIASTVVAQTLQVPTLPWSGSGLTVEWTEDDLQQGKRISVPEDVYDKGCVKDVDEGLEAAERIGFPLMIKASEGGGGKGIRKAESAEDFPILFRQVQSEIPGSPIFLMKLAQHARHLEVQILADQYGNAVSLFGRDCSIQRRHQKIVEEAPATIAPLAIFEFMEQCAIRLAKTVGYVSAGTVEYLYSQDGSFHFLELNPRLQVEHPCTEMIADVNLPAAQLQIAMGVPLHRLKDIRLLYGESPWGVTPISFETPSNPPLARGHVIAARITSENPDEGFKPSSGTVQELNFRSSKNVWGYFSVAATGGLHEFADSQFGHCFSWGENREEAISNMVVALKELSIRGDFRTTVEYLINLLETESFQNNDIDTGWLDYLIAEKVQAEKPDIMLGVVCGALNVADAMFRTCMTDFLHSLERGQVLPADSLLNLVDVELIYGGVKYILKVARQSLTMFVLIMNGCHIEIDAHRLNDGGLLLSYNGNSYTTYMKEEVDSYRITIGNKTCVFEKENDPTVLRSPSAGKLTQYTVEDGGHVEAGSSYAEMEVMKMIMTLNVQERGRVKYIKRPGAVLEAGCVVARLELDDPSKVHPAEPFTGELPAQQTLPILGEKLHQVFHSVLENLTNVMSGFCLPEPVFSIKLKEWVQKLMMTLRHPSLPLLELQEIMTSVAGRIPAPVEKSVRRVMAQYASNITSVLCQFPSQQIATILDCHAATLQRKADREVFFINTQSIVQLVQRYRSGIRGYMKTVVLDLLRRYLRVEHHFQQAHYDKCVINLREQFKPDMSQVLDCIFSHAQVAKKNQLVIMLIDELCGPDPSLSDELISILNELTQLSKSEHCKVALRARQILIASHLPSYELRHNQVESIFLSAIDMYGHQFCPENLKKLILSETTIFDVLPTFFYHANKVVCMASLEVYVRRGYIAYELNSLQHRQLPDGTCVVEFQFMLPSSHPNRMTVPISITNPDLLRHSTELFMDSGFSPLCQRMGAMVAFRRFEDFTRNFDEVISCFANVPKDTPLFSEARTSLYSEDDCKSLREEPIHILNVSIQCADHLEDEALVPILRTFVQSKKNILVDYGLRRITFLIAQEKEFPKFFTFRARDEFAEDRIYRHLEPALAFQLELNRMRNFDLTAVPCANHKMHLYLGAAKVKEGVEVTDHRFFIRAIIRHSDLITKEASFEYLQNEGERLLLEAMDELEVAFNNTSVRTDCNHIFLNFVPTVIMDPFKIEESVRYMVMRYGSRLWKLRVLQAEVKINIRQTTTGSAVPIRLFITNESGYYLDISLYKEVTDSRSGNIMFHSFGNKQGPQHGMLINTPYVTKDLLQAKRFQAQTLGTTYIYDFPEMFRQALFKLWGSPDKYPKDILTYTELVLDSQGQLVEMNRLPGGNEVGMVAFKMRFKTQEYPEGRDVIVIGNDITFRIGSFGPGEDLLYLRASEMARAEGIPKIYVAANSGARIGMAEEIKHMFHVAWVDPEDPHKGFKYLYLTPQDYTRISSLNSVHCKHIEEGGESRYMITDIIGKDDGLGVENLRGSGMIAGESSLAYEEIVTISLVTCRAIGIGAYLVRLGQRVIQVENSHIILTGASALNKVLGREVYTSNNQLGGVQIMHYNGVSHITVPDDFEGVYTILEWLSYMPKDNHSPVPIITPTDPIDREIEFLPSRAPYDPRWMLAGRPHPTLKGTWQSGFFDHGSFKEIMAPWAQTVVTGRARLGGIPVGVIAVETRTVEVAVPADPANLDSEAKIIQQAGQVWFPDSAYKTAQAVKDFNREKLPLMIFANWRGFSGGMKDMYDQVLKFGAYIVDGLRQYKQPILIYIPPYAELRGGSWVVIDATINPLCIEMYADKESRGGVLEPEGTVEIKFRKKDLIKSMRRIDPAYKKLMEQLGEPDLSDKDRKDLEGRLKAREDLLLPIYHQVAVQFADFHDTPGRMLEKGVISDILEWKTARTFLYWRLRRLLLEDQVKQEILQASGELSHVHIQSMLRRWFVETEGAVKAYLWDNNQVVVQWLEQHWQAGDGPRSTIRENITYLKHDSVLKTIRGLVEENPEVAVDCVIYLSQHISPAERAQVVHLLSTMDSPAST

Row | SMILES | IC50 [nM]
1 | Cc1c(C2CC2)n(C)c2cc(S(=O)(=O)N[C@H]3CC[C@H](C(=O)N4CCOC[C@@H]4C)CC3)ccc12 [Example 32, 2-cyclopropyl-1,3-dimethyl-N-((1S,4r)-4-((S)-3-methylmorpholine-4-carbonyl)cyclohexyl)-1H-indole-6-sulfonamide] | 245
2 | C[C@@H](NC(=O)[C@H]1CC[C@H](NS(=O)(=O)c2cnc3c(c2)NCCN3)CC1)c1ccc(F)cc1 [Example 33, (1r,4R)—N—((R)-1-(4-fluorophenyl)ethyl)-4-(1,2,3,4-tetrahydropyrido[3,2-b]pyrazine-7-sulfonamido)cyclohexanecarboxamide] | 140
3 | C[C@@H](NC(=O)[C@H]1CC[C@H](NS(=O)(=O)c2cnc3c(c2)N(C)CCN3C)CC1)c1ccc(F)cc1 [Example 34, (1r,4R)-4-(1,4-dimethyl-1,2,3,4-tetrahydropyrido[3,2-b]pyrazine-7-sulfonamido)-N—((R)-1-(4-fluorophenyl)ethyl)cyclohexanecarboxamide] | 138
4 | C[C@@H](NC(=O)[C@H]1CC[C@H](NS(=O)(=O)c2cnc3c(c2)NCCS3)CC1)c1ccc(F)cc1 [Example 35, (1r,4R)-4-(2,3-dihydro-1H-pyrido[2,3-b][1,4]thiazine-7-sulfonamido)-N—((R)-1-(4-fluorophenyl)ethyl)cyclohexanecarboxamide] | 10
5 | CCOc1ccc2cc(S(=O)(=O)N[C@H]3CC[C@H](C(=O)N[C@H](C)c4ccc(F)cc4)CC3)ccc2n1 [Example 36, (1r,4R)-4-(2-ethoxyquinoline-6-sulfonamido)-N—((R)-1-(4-fluorophenyl)ethyl)cyclohexanecarboxamide] | 50
6 | CCOc1ccc2cc(S(=O)(=O)N[C@H]3CC[C@H](C(=O)N[C@@H](c4ccccc4)[C@@H](C)O)CC3)ccc2n1 [Example 37, (1r,4S)-4-(2-ethoxyquinoline-6-sulfonamido)-N-((1S,2R)-2-hydroxy-1-phenylpropyl)cyclohexanecarboxamide] | 75
7 | C[C@@H](NC(=O)[C@H]1CC[C@H](NS(=O)(=O)c2ccc3nc(N4CCN(C)CC4)ccc3c2)CC1)c1ccc(F)cc1 [Example 38, (1r,4R)-N-((R)-1-(4-fluorophenyl)ethyl)-4-(2-(4-methylpiperazin-1-yl)quinoline-6-sulfonamido)cyclohexanecarboxamide] | 50
8 | C[C@@H](NC(=O)[C@H]1CC[C@H](NS(=O)(=O)c2ccc3nc(-c4ccncc4)ccc3c2)CC1)c1ccc(F)cc1 [Example 39, (1r,4R)-N-((R)-1-(4-fluorophenyl)ethyl)-4-(2-(pyridin-4-yl)quinoline-6-sulfonamido)cyclohexanecarboxamide] | 25
9 | C[C@@H](NC(=O)[C@H]1CC[C@H](NS(=O)(=O)c2ccc3nc(C(F)(F)F)cn3c2)CC1)c1ccc(F)cc1 [Example 40, (1r,4R)-N-((R)-1-(4-fluorophenyl)ethyl)-4-(2-(trifluoromethyl)imidazo[1,2-a]pyridine-6-sulfonamido)cyclohexanecarboxamide] | 34100
10 | C[C@@H](NC(=O)[C@H]1CC[C@H](NC(=O)Nc2ccc3[nH]c(-c4ccccc4)nc3c2)CC1)c1ccc(F)cc1 [Example 41, (1r,4R)-N-((R)-1-(4-fluorophenyl)ethyl)-4-(3-(2-phenyl-1H-benzo[d]imidazol-5-yl)ureido)cyclohexanecarboxamide] | 4640
11 | C[C@@H](NC(=O)[C@H]1CC[C@H](NS(=O)(=O)c2ccc3nc(Cl)ccc3c2)CC1)c1ccc(F)cc1 [Example 42, (1r,4R)-4-(2-chloroquinoline-6-sulfonamido)-N-((R)-1-(4-fluorophenyl)ethyl)cyclohexanecarboxamide] | 94
12 | C[C@@H](NC(=O)[C@H]1CC[C@H](NS(=O)(=O)c2ccc3nc(OC4CCC4)ccc3c2)CC1)c1ccc(F)cc1 [Example 51, (1r,4R)-4-(2-cyclobutoxyquinoline-6-sulfonamido)-N-((R)-1-(4-fluorophenyl)ethyl)cyclohexanecarboxamide] | 101

The next lines start with the values.

Row | IC50 [nM] | SMILES
13 | 412 | O=C([C@H]1CC[C@H](NS(=O)(=O)c2cnc3ccccc3c2)CC1)N1CCCC1c1ccccc1 (stereo partly drawn) [Example 43, N-((1r,4r)-4-(2-phenylpyrrolidine-1-carbonyl)cyclohexyl)quinoline-3-sulfonamide]
14 | 450 | CC(NC(=O)[C@H]1CC[C@H](NS(=O)(=O)c2cnc3ccccc3c2)CC1)c1cccc(F)c1 (stereo partly drawn) [Example 44, (1r,4r)-N-(1-(3-fluorophenyl)ethyl)-4-(quinoline-3-sulfonamido)cyclohexanecarboxamide]
15 | > 35000 | CC(NC(=O)[C@H]1CC[C@H](NS(=O)(=O)c2cnc3ccccc3c2)CC1)c1ccc(C(F)(F)F)cc1 (stereo partly drawn) [Example 45, (1r,4r)-4-(quinoline-3-sulfonamido)-N-(1-(4-(trifluoromethyl)phenyl)ethyl)cyclohexanecarboxamide]
16 | 9040 | C[C@@H](NC(=O)[C@H]1CC[C@H](NS(=O)(=O)c2cnc3ccccc3c2)CC1)c1ccccc1C(F)(F)F [Example 46, (1r,4R)-4-(quinoline-3-sulfonamido)-N-((R)-1-(2-(trifluoromethyl)phenyl)ethyl)cyclohexanecarboxamide]
17 | 4220 | CN1CCN(C(=O)[C@H]2CC[C@H](NS(=O)(=O)c3cnc4ccccc4c3)CC2)C(c2ccccc2)C1 (stereo partly drawn) [Example 47, N-((1r,4r)-4-(4-methyl-2-phenylpiperazine-1-carbonyl)cyclohexyl)quinoline-3-sulfonamide]
18 | 32800 | O=C([C@H]1CC[C@H](NS(=O)(=O)c2cnc3ccccc3c2)CC1)N1CCCC1C(F)(F)F (stereo partly drawn) [Example 48, N-((1r,4r)-4-(2-(trifluoromethyl)pyrrolidine-1-carbonyl)cyclohexyl)quinoline-3-sulfonamide]
19 | 43 | COc1ccc2cc(S(=O)(=O)N[C@H]3CC[C@H](C(=O)N[C@H](C)c4ccc(F)cc4)CC3)ccc2n1 [Example 49, (1r,4R)-N-((R)-1-(4-fluorophenyl)ethyl)-4-(2-methoxyquinoline-6-sulfonamido)cyclohexanecarboxamide]
20 | > 35000 | C[C@@H](NC(=O)[C@H]1CC[C@H](NS(=O)(=O)c2ccc3nc(OCC(F)(F)F)ccc3c2)CC1)c1ccc(F)cc1 [Example 50, (1r,4R)-N-((R)-1-(4-fluorophenyl)ethyl)-4-(2-(2,2,2-trifluoroethoxy)quinoline-6-sulfonamido)cyclohexanecarboxamide]
21 | 435 | C[C@@H](NC(=O)[C@H]1CC[C@H](NS(=O)(=O)c2cnc3nc(-c4ccccc4)sc3c2)CC1)c1ccc(F)cc1 [Example 52, (1r,4R)-N-((R)-1-(4-fluorophenyl)ethyl)-4-(2-phenylthiazolo[4,5-b]pyridine-6-sulfonamido)cyclohexanecarboxamide]
22 | 93 | C[C@@H](NC(=O)[C@H]1CC[C@H](NS(=O)(=O)c2ccc3nc(N(C)C)ccc3c2)CC1)c1ccc(F)cc1 [Example 53, (1r,4R)-4-(2-(dimethylamino)quinoline-6-sulfonamido)-N-((R)-1-(4-fluorophenyl)ethyl)cyclohexanecarboxamide]
23 | 193 | C[C@@H](NC(=O)[C@H]1CC[C@H](NS(=O)(=O)c2ccc3nc(O)ccc3c2)CC1)c1ccc(F)cc1 [Example 54, (1r,4R)-N-((R)-1-(4-fluorophenyl)ethyl)-4-(2-hydroxyquinoline-6-sulfonamido)cyclohexanecarboxamide]
24 | 134 | C[C@@H](NC(=O)[C@H]1CC[C@H](NS(=O)(=O)c2cnc3ccccc3c2)CC1)c1ccccc1 [Example 55, (1r,4R)-N-((R)-1-phenylethyl)-4-(quinoline-3-sulfonamido)cyclohexanecarboxamide]
25 | 189 | CC[C@@H](NC(=O)[C@H]1CC[C@H](NS(=O)(=O)c2cnc3ccccc3c2)CC1)c1ccccc1 [Example 56, (1r,4R)-N-((R)-1-phenylpropyl)-4-(quinoline-3-sulfonamido)cyclohexanecarboxamide]
26 | 112 | C[C@@H](NC(=O)[C@H]1CC[C@H](NS(=O)(=O)c2cnc3ccccc3c2)CC1)c1ccc(Cl)cc1 [Example 57, (1r,4R)-N-((R)-1-(4-chlorophenyl)ethyl)-4-(quinoline-3-sulfonamido)cyclohexanecarboxamide]
27 | 185 | C[C@@H](NC(=O)[C@H]1CC[C@H](NS(=O)(=O)c2cnc3ccccc3c2)CC1)c1ccccc1F [Example 58, (1r,4R)-N-((R)-1-(2-fluorophenyl)ethyl)-4-(quinoline-3-sulfonamido)cyclohexanecarboxamide]
